Results published in patent publication US10294229B2, “Heteroaryl substituted aminopyridine compounds” (BRISTOL-MYERS SQUIBB COMPANY, priority 2015, dated 2019).
Values belong to the compound of their own block, whether it stands above or below them.

Experiments:
IRAK4 = IRAK4 (Homo sapiens (Human), UniProt Q9NWZ3); experiment: IRAK4 Inhibition Assay; assay type: biochemical; settings: ATP 500 μM; IRAK4 0.6 nM
Procedure, shortened: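 Enzyme 0.6 nM, ATP 500 μM, FL-peptide 1.5 μM, DMSO 1.6%; HEPES pH 7.2/MgCl2/Brij 35/DTT buffer. RT, 60 min, EDTA stop. Mobility-shift product/substrate ratio; % inhib vs no-enzyme and vehicle controls.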

Caco-2 cells = experiment: Caco-2 Permeability Assay; assay type: in vitro ADME; settings: test compound 3 μM
Procedure, shortened: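 Bidirectional permeability measured over 2 h at 37° C, compound dosed at 3 μM in the donor compartment (apical for absorptive, basolateral for secretive) with plain buffer as receiver.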

[1] = tested on: Human whole blood stimulated with a TLR2 agonist (lipoteichoic acid), IL-6 levels; experiment: IRAK4 Whole Blood Assay; assay type: cell-based; settings: lipoteichoic acid 10 μg/mL
Procedure, shortened: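 ACD-A-anticoagulated human whole blood was preincubated with compounds for 60 min at 37 °C under 5% CO2. It was then stimulated with 10 μg/mL lipoteichoic acid (final) in RPMI for 5 h. IL-6 in plasma supernatants was measured by flow cytometry bead assay.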

IRAK4, sequence (Q9NWZ3 whole entry, species assumed): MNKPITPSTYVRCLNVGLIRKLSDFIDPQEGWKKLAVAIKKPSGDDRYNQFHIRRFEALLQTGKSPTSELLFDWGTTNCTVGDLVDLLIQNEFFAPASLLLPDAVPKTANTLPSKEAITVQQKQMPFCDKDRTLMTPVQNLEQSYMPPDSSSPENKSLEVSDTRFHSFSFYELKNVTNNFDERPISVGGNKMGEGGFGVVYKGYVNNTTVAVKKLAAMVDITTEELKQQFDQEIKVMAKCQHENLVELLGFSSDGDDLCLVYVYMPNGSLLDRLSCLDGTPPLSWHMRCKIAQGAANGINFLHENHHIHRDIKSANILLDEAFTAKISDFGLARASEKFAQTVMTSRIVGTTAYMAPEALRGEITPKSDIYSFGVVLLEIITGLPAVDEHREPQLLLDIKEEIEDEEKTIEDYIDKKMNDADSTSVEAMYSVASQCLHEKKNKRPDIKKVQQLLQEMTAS

SMILES: CC(C)Nc1cc(-n2ncc3cc(C#N)cnc32)ncc1-c1cn(CC2CC2(F)F)nn1 (single isomer, unassigned) [Example 32, 1-(5-(1-((2,2-difluorocyclopropyl)methyl)-1H-1,2,3-triazol-4-yl)-4-(isopropylamino)pyridin-2-yl)-1H-pyrazolo[3,4-b]pyridine-5-carbonitrile]
IC50 (IRAK4): 5 nM
Caco-2 Permeability (Caco-2 cells): 16.2 ×10⁻⁶ cm/s
EC50 [1]: 370 nM

SMILES: CC(C)Nc1cc(-n2ncc3cc(C#N)cnc32)ncc1-c1cn([C@@H]2CCN(S(C)(=O)=O)C[C@H]2F)nn1 (single isomer, unassigned) [Example 211, 1-(5-(1-((trans)-3-fluoro-1-(methylsulfonyl)piperidin-4-yl)-1H-1,2,3-triazol-4-yl)-4-(isopropylamino)pyridin-2-yl)-1H-pyrazolo[3,4-b]pyridine-5-carbonitrile]
IC50 (IRAK4): 2 nM
Caco-2 Permeability (Caco-2 cells): 3.2 ×10⁻⁶ cm/s
EC50 [1]: 290 nM

SMILES: CCNc1cc(-n2ncc3cc(C#N)cnc32)ncc1C1=NOC(CCC(C)(C)O)C1 (stereo not drawn) [Example 441, 1-(4-(ethylamino)-5-(5-(3-hydroxy-3-methylbutyl)-4,5-dihydroisoxazol-3-yl)pyridin-2-yl)-1H-pyrazolo[3,4-b]pyridine-5-carbonitrile]
IC50 (IRAK4): 2 nM
Caco-2 Permeability (Caco-2 cells): 31.7 ×10⁻⁶ cm/s
EC50 [1]: 260 nM

The remaining compounds from weak to strong by IC50 (IRAK4), led by results:

IC50 (IRAK4): 10 nM
Caco-2 Permeability (Caco-2 cells): 11.5 ×10⁻⁶ cm/s
EC50 [1]: 280 nM
SMILES: CCC(C)(O)Cn1cc(-c2cnc(-n3ncc4cc(C#N)cnc43)cc2NC(C)C)nn1 (single isomer, unassigned) [Example 93, 1-(5-(1-(2-hydroxy-2-methylbutyl)-1H-1,2,3-triazol-4-yl)-4-(isopropylamino)pyridin-2-yl)-1H-pyrazolo[3,4-b]pyridine-5-carbonitrile]

IC50 (IRAK4): 3 nM
Caco-2 Permeability (Caco-2 cells; listed as 400, Isomer 1): 22.4 ×10⁻⁶ cm/s
EC50 ([1]; Homo sapiens): 230 nM
SMILES: CC(C)Nc1cc(-n2ncc3cc(C#N)cnc32)ncc1-c1cc(C2COCCN2)no1 (single isomer, unassigned) [Example 400, Isomer 1, 1-(4-(isopropylamino)-5-(3-(morpholin-3-yl)isoxazol-5-yl)pyridin-2-yl)-1H-pyrazolo[3,4-b]pyridine-5-carbonitrile]
